Measurements taken from patent US7902225B2, “Mycobacterial inhibitors” (Janssen Pharmaceutica NV, priority 2005, dated 2011).

Each compound was assayed on M. Smegmatis ATCC607 (assay: In-vitro anti-bacterial activity against strain M. smegmatis ATCC607 (growth inhibition, Alamar Blue fluorescence)). Details: 48 hours at 37° C.
Type: cell-based
Method: D.2. In-vitro Method for Testing Compounds for Anti-bacterial Activity Against Strain M. Smegmatis ATCC607. Flat-bottom, sterile 96well plastic microtiter plates were filled with 180 μl of sterile deionized water, supplemented with 0.25% BSA. Subsequently, stock solutions (7.8× final test concentration) of compounds were added in 45 μl volumes to a series of duplicate wells in column 2 so as to allow evaluation of their effects on bacterial growth. Serial five-fold dilutions (45 μl in 180 μl) were made directly in the microtiter plates from column 2 to 11 using a customised robot system (Zymark Corp., Hopkinton, Mass.). Pipette tips were changed after every 3 dilutions to minimize pipetting errors with high hydrophobic compounds. Untreated control samples with (column 1) and without (column 12) inoculum were included in each microtiter plate. Approximately 250 CFU per well of bacteria inoculum, in a volume of 100 μl in 2.8× Mueller-Hinton broth medium, was added to the rows […]. The same volume of broth medium without inoculum was added to column 12 in row A to H. The cultures were incubated at 37° C. for 48 hours in a humidified 5% CO2 atmosphere (incubator with open air valve and continuous ventilation). At the end of incubation, two days after inoculation, the bacterial growth was quantitated fluorometrically. Therefore Alamar Blue (10×) was added to all wells in a volume of 20 μl and plates were incubated for another 2 hours at […] The fluorescence was read in a computer-controlled fluorometer (Cytofluor, Biosearch) at an excitation wavelength of 530 nm and an emission wavelength of 590 nm (gain 30). The % growth inhibition achieved by the compounds was calculated according to standard methods. The pIC50 was defined as the 50% inhibitory concentration for bacterial growth.

Row | Compound | M. smegmatis (pIC50)
1 | COc1cc(-c2ccccc2)c2cc(C(O)(CCN(C)C)c3ccccc3)ccc2n1 (stereo not shown) [Compound 27] | 5.2
2 | COc1nc2cccc(C(O)(CCN(C)C)c3c(F)cccc3F)c2cc1-c1ccccc1 (stereo not shown) [Compound 28] | 5.1
3 | CN(C)CCC(O)(c1cccc2ccccc12)c1cc(Br)cc2cc(Cc3ccccc3)c(N3CCN(Cc4ccc5c(c4)OCO5)CC3)nc12 (stereo not shown) [Compound 45] | 6.6
4 | CN(C)CCC(O)(c1cccc2ccccc12)c1cc(Br)cc2cc(Cc3ccccc3)c(-n3ccnc3)nc12 (stereo not shown) [Compound 46] | 6.6
5 | CN(C)CCC(O)(c1cccc2ccccc12)c1cc(Br)cc2cc(Cc3ccccc3)c(N3CCN(O)CC3)nc12 (stereo not shown) [Compound 49] | 6.1
6 | CN(C)CCC(O)(c1cccc2ccccc12)c1cc(Br)cc2cc(-c3ccccc3)c(-n3cncn3)nc12 (stereo not shown) [Compound 56] | 5.8
7 | CN(C)CCC(O)(c1cccc2ccccc12)c1cc(Br)cc2cc(Cc3ccccc3)c(N(C)C)nc12 (stereo not shown) [Compound 57] | 5.8
8 | CN(C)CCC(O)(c1ccccc1)c1cc2nc(N3CCCC3)c(Cc3ccccc3)cc2cc1Br (stereo not shown) [Compound 58] | 5.8
9 | CN(C)CCC(O)(c1ccccc1)c1cc(Br)cc2cc(Cc3ccccc3)c(-n3ccnc3)nc12 (stereo not shown) [Compound 59] | 5.8
10 | CN(C)CCC(O)(c1ccccc1)c1cc2nc(N3CCN(C)CC3)c(Cc3ccccc3)cc2cc1Br (stereo not shown) [Compound 61] | 5.3
11 | CN(C)CCC(O)(c1ccccc1)c1cc(Br)cc2cc(Cc3ccccc3)c(-n3cncn3)nc12 (stereo not shown) [Compound 62] | 5.3
12 | CN(C)CCC(O)(c1cccc2ccccc12)c1cc(Br)cc2cc(Cc3ccccc3)c(N3CCC(Cc4ccccc4)CC3)nc12 (stereo not shown) [Compound 64] | 5.2
13 | CN(C)CCC(O)(c1ccccc1)c1cc(Br)cc2cc(Cc3ccccc3)c(-n3ccnn3)nc12 (stereo not shown) [Compound 65] | 5.2

Same assay, conditions: Mycolicibacterium smegmatis, 48 hours at 37° C., read-out: M. smegmatis (pIC50) (converted)

Row | Compound | IC50 [nM]
14 | COc1nc2cccc(C(O)(CCN(C)C)c3cc(F)cc(F)c3)c2cc1-c1ccccc1 (stereo not shown) [Compound 1] | 1260
15 | COc1nc2ccc(C(O)(CCN(C)C)c3cc(F)cc(F)c3)cc2cc1Cc1ccc(C)cc1 (stereo not shown) [Compound 2] | 1260
16 | CN(C)CCC(O)(Cc1c(Cc2ccccc2)c(N2CCCC2)nc2ccccc12)c1cc(F)cc(F)c1 (stereo not shown) [Compound 4] | 251
17 | Cc1cc(-c2ccccc2)c2cc(C(O)(CCN(C)C)c3ccco3)ccc2n1 (stereo not shown) [Compound 6] | 31600
18 | CN(C)CCC(O)(c1cc(F)cc(F)c1)c1ccc2nc(-c3cccnc3)cc(-c3ccccc3)c2c1 (stereo not shown) [Compound 8] | 1580
19 | CN(C)CCC(O)(c1cc(F)cc(F)c1)c1cccc2nc(N(C)C)c(-c3ccccc3)cc12 (stereo not shown) [Compound 10] | 2000
20 | COc1nc2c(C(O)(CCN(C)C)c3cc(F)cc(F)c3)cc(Br)cc2cc1-c1ccccc1 (stereo not shown) [Compound 12] | 1580
21 | COc1nc2c(C(O)(CCN(C)C)c3cc(F)cc(F)c3)cc(-c3cccnc3)cc2cc1-c1ccccc1 (stereo not shown) [Compound 13] | 398
22 | COc1nc2c(C(O)(CCN(C)C)c3cccs3)cc(Br)cc2cc1Cc1ccccc1 (stereo not shown) [Compound 15] | 7940
23 | COc1nc2c(C(O)(CCN(C)C)c3cccs3)cc(C)cc2cc1Cc1ccccc1 (stereo not shown) [Compound 16] | 1580
24 | COc1nc2cccc(C(O)(CCN(C)C)c3cccc4ccccc34)c2cc1-c1ccccc1 (stereo not shown) [Compound 18] | 1580
25 | COc1nc2cccc(C(O)(CCN(C)C)c3ccc4ccccc4c3)c2cc1-c1ccccc1 (stereo not shown) [Compound 19] | 7940
26 | COc1nc2cccc(C(O)(CCN(C)C)c3ccccc3)c2cc1-c1ccccc1 (stereo not shown) [Compound 20] | 31600
27 | COc1nc2cccc(C(O)(CCN(C)C)c3ccco3)c2cc1-c1ccccc1 (stereo not shown) [Compound 21] | 31600
28 | COc1nc2c(C(O)(CCN(C)C)c3ccco3)cc(Br)cc2cc1-c1ccccc1 (stereo not shown) [Compound 26] | 2000
29 | COc1cc(-c2ccccc2)c2cc(C(O)(CCN(C)C)c3ccco3)ccc2n1 (stereo not shown) [Compound 29] | 31600
30 | CN(C)CCC(O)(Cc1c(Cc2ccccc2)c(N2CCOCC2)nc2ccccc12)c1cc(F)cc(F)c1 (stereo not shown) [Compound 31] | 1260
31 | CN(C)CCC(O)(c1cc(F)cc(F)c1)c1cccc2nc(N3CCN(C)CC3)c(-c3ccccc3)cc12 (stereo not shown) [Compound 32] | 10000
32 | CN(C)CCC(O)(c1cc(F)cc(F)c1)c1cccc2nc(-n3cncn3)c(-c3ccccc3)cc12 (stereo not shown) [Compound 33] | 31600
33 | CN(C)CCC(O)(c1cccs1)c1cc(Br)cc2cc(Cc3ccccc3)c(N3CCN(C)CC3)nc12 (stereo not shown) [Compound 35] | 1580
34 | CN(C)CCC(O)(c1cccc2ccccc12)c1cccc2nc(N3CCN(C)CC3)c(-c3ccccc3)cc12 (stereo not shown) [Compound 36] | 10000
35 | CN(C)CCC(O)(c1ccccc1)c1cccc2nc(N3CCN(C)CC3)c(-c3ccccc3)cc12 (stereo not shown) [Compound 37] | 79400
36 | CN(C)CCC(O)(Cc1c(-c2ccccc2)c(-c2ccco2)nc2ccccc12)c1cc(F)cc(F)c1 (stereo not shown) [Compound 39] | 1260
37 | CN(C)CCC(O)(Cc1c(Cc2ccccc2)c(-c2ccsc2)nc2ccccc12)c1cc(F)cc(F)c1 (stereo not shown) [Compound 40] | 7940
38 | CN(C)CCC(O)(Cc1c(-c2ccccc2)c(-c2ccccc2)nc2ccccc12)c1cc(F)cc(F)c1 (stereo not shown) [Compound 41] | 31600
39 | CN(C)CCC(O)(Cc1c(Cc2ccccc2)c(-c2ccccc2)nc2ccccc12)c1cc(F)cc(F)c1 (stereo not shown) [Compound 42] | 39800

Row | Compound | IC50 [nM]
40 | Cc1cc(-c2ccccc2)c2cc(C(O)(CCN(C)C)c3ccccc3)ccc2n1 (stereo not shown) [Compound 43] | 12600
41 | CN(C)CCC(O)(c1cc(F)cc(F)c1)c1cc(Br)cc2cc(-c3ccccc3)c(-n3ccnc3)nc12 (stereo not shown) [Compound 44] | 1260
42 | CN(C)CCC(O)(c1cccc2ccccc12)c1cc(Br)cc2cc(Cc3ccccc3)c(N3CCN(Cc4ccccc4)CC3)nc12 (stereo not shown) [Compound 47] | 398
43 | CN(C)CCC(O)(c1cccc2ccccc12)c1cc(Br)cc2cc(Cc3ccccc3)c(N3CCN(c4n[nH]c5ccccc45)CC3)nc12 (stereo not shown) [Compound 48] | 631
44 | CN(C)CCC(O)(c1cccc2ccccc12)c1cc(Br)cc2cc(Cc3ccccc3)c(N3CCc4ccccc4C3)nc12 (stereo not shown) [Compound 50] | 794
45 | CN(C)CCC(O)(c1cccc2ccccc12)c1cc(Br)cc2cc(Cc3ccccc3)c(N3CCOCC3)nc12 (stereo not shown) [Compound 51] | 1000
46 | CN(C)CCC(O)(c1cccc2ccccc12)c1cc(Br)cc2cc(Cc3ccccc3)c(N3CCCC3)nc12 (stereo not shown) [Compound 52] | 1000
47 | CN(C)CCC(O)(c1cccs1)c1cc(Br)cc2cc(Cc3ccccc3)c(-n3ccnc3)nc12 (stereo not shown) [Compound 53] | 1260
48 | CN(C)CCC(O)(c1cccc2ccccc12)c1cc(Br)cc2cc(Cc3ccccc3)c(N3CCN(C(=O)c4ccco4)CC3)nc12 (stereo not shown) [Compound 54] | 1260
49 | CN(C)CCC(O)(c1ccccc1)c1cc2nc(N3CCN(Cc4ccccc4)CC3)c(Cc3ccccc3)cc2cc1Br (stereo not shown) [Compound 55] | 1260
50 | CN(C)CCC(O)(c1ccccc1)c1cc2nc(N3CCN(Cc4ccc5c(c4)OCO5)CC3)c(Cc3ccccc3)cc2cc1Br (stereo not shown) [Compound 60] | 2000
51 | CN(C)CCC(O)(c1ccco1)c1cc(Br)cc2cc(-c3ccccc3)c(-n3ccnc3)nc12 (stereo not shown) [Compound 63] | 6310
52 | CN(C)CCC(O)(c1ccccc1)c1cc(Br)cc2cc(-c3ccccc3)c(-n3cncn3)nc12 (stereo not shown) [Compound 66] | 12600
53 | CN(C)CCC(O)(c1ccccc1)c1cc2nc(N(C)C)c(Cc3ccccc3)cc2cc1Br (stereo not shown) [Compound 67] | 20000
54 | CN(C)CCC(O)(c1ccco1)c1cc(Br)cc2cc(-c3ccccc3)c(-n3cncn3)nc12 (stereo not shown) [Compound 68] | 31600
55 | CN(C)CCC(O)(c1cccc2ccccc12)c1cc(Br)cc2cc(Cc3ccccc3)c(N3CCN(C(c4ccccc4)c4ccccc4)CC3)nc12 (stereo not shown) [Compound 69] | 39800
56 | CN(C)CCC(O)(c1ccccc1)c1ccc2nc(-c3cccnc3)cc(-c3ccccc3)c2c1 (stereo not shown) [Compound 71] | 1580
57 | CN(C)CCC(O)(c1ccc2nc(-c3cccnc3)cc(-c3ccccc3)c2c1)c1ccco1 (stereo not shown) [Compound 72] | 6310
58 | CN(C)CCC(O)(c1cccs1)c1cc(Br)cc2cc(Cc3ccccc3)c(N(C)C)nc12 (stereo not shown) [Compound 73] | 1580
59 | CN(C)CCC(O)(c1ccccc1)c1cc(-c2cccnc2)cc2cc(-c3ccccc3)c(-c3cccnc3)nc12 (stereo not shown) [Compound 76] | 1580
60 | COc1nc2c(C(O)(CCN(C)C)c3cccs3)cc(-c3cccnc3)cc2cc1Cc1ccccc1 (stereo not shown) [Compound 77] | 12600
61 | CN(C)CCC(O)(c1ccccc1)c1cc(Br)cc2cc(Cc3ccccc3)c(N(C)C)nc12 (stereo not shown) [Compound 78] | 1580
62 | CN(C)CCC(O)(c1ccccc1)c1cc(Br)cc2cc(Cc3ccccc3)c(N3CC=CCC3)nc12 (stereo not shown) [Compound 81] | 1260
63 | CC(=O)c1ccc(N2CCN(c3nc4c(C(O)(CCN(C)C)c5ccccc5)cc(Br)cc4cc3Cc3ccccc3)CC2)cc1 (stereo not shown) [Compound 82] | 1580
64 | CN(C)CCC(O)(c1ccccc1)c1cc(Br)cc2cc(Cc3ccccc3)c(N(C)CCc3ccccc3)nc12 (stereo not shown) [Compound 83] | 1580
